Tests used:
[1] = system: primary neuron and glia cells; test: LDH release from glutamate challenged primary neuron and glia cells; assay type: cell-based
Procedure: FIGS. 36A-B show rescue of glutamate challenged primary neuron and glia cells as measured by LDH release. Studies with glutamate challenged primary neuron and glial cells show efficacy of GC-MP/MP and GCMP at high concentrations and GC-MP/MP at low concentrations (FIG. 36A). MPHS is beneficial at lower concentrations. LDH release from glutamate challenged (100 umol) primary neuron and glial cells treated with GC, GC-MP, GC-MP/MP (all 1 mg/ml) and MPHS (250 ug/ml) (FIG. 36B).

PC12 cell = test: H2O2-induced PC12 cell injury model, apoptosis (Example 1); assay type: cell-based

## C[C@H]1C[C@@H]2[C@H]([C@@H](O)C[C@@]3(C)[C@H]2CC[C@]3(O)C(=O)COC(=O)CCC(=O)O)[C@@]2(C)C=CC(=O)C=C12 [MPHS, methylprednisolone hemisuccinate]
[1]; 16 hours, GC, GC-MP, GC-MP/MP 1 mg/ml, MPHS 250 ug/ml, glutamate 100 umol
  rescue of glutamate challenged cells, LDH release: not significant
[1]; FIG. 36A
  rescue of glutamate challenged cells at low concentrations: beneficial

## COc1cc(/C=C/C(=O)CC(=O)/C=C/c2ccc(O)c(OC)c2)ccc1O [curcumin]
PC12 cell
  reducing cell apoptosis: effective in reducing cell apoptosis
